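Briefly, cells in 96-well plates were exposed to five compound concentrations for 48 h, and endpoints were estimated by linear interpolation. The concentration for 50% growth inhibition is given as GI50.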 Calls of active or inactive are those of the source. Rule as the data show it: active = GI50 up to about 1.1 µM and inactive = higher.
What was measured:
Test in all cases: NCI tumour cell line growth inhibition, 48 h
OVCAR-3 = tested on: OVCAR-3
COLO 205 = tested on: COLO 205
A549 = tested on: A549
OVCAR-4 = tested on: OVCAR-4
786-0 = tested on: 786-0
UACC-62 = tested on: UACC-62
MDA-MB-435 = tested on: MDA-MB-435
HCC 2998 = tested on: HCC 2998
SK-OV-3 = tested on: SK-OV-3
M14 = tested on: M14
SK-MEL-2 = tested on: SK-MEL-2
Hs-578T = tested on: Hs-578T
PC-3 = tested on: PC-3
UACC-257 = tested on: UACC-257
RPMI-8226 = tested on: RPMI-8226
MDA-MB-231 = tested on: MDA-MB-231
A498 = tested on: A498
RXF 393 = tested on: RXF 393
SNB-19 = tested on: SNB-19
Malme-3M = tested on: Malme-3M
TK-10 = tested on: TK-10
OVCAR-5 = tested on: OVCAR-5
HCT-116 = tested on: HCT-116
IGROV-1 = tested on: IGROV-1
ACHN = tested on: ACHN
EKVX = tested on: EKVX
NCI-H460 = tested on: NCI-H460
CCRF-CEM = tested on: CCRF-CEM
OVCAR-8 = tested on: OVCAR-8
LOX IMVI = tested on: LOX IMVI
NCI-H226 = tested on: NCI-H226
MCF7 = tested on: MCF7
HCT-15 = tested on: HCT-15
DU-145 = tested on: DU-145
CAKI-1 = tested on: CAKI-1
SF-295 = tested on: SF-295
SW-620 = tested on: SW-620
SN12C = tested on: SN12C
SK-MEL-5 = tested on: SK-MEL-5
SR = tested on: SR
UO-31 = tested on: UO-31
K562 = tested on: K562
HOP-62 = tested on: HOP-62
NCI/ADR-RES = tested on: NCI/ADR-RES
SK-MEL-28 = tested on: SK-MEL-28
HT-29 = tested on: HT-29
NCI-H522 = tested on: NCI-H522
KM12 = tested on: KM12
U-251 = tested on: U-251
MOLT-4 = tested on: MOLT-4
SF-268 = tested on: SF-268
BT-549 = tested on: BT-549
T47D = tested on: T47D
HL-60 = tested on: HL-60
SNB-75 = tested on: SNB-75
NCI-H23 = tested on: NCI-H23
HOP-92 = tested on: HOP-92

In the case of `S=C1c2ccccc2N=C(NC2CCCC2)C2CSCN12` (configuration not stated), the GI50 (OVCAR-3) is reported as 97.1 µM (inactive), the GI50 (COLO 205) is reported as > 100 µM (inactive) and the GI50 (A549) is reported as > 100 µM (inactive). For the same molecule, the GI50 (OVCAR-4) was > 100 µM (inactive), the GI50 (786-0) was > 100 µM (inactive) and the GI50 (UACC-62) was 43.5 µM (inactive). The GI50 (MDA-MB-435) was 76 µM (inactive), the GI50 (HCC 2998) was 65.6 µM (inactive) and the GI50 (SK-OV-3) was > 100 µM (inactive). The GI50 (M14) was 91.8 µM (inactive), the GI50 (SK-MEL-2) was > 100 µM (inactive) and the GI50 (Hs-578T) was 44.4 µM (inactive). For the same molecule, the GI50 (PC-3) was 40.6 µM (inactive), the GI50 (UACC-257) was 51.5 µM (inactive) and the GI50 (RPMI-8226) was 75.2 µM (inactive). The GI50 (MDA-MB-231) was > 100 µM (inactive), the GI50 (A498) was 88.9 µM (inactive) and the GI50 (RXF 393) was 91.6 µM (inactive). The GI50 (SNB-19) was > 100 µM (inactive), the GI50 (Malme-3M) was > 100 µM (inactive) and the GI50 (TK-10) was > 100 µM (inactive). The GI50 (OVCAR-5) was > 100 µM (inactive), the GI50 (HCT-116) was 80.7 µM (inactive) and the GI50 (IGROV-1) was > 100 µM (inactive). For the same molecule, the GI50 (ACHN) was > 100 µM (inactive), the GI50 (EKVX) was 37.2 µM (inactive) and the GI50 (NCI-H460) was 61.1 µM (inactive). The GI50 (CCRF-CEM) was 32 µM (inactive), the GI50 (OVCAR-8) was > 100 µM (inactive) and the GI50 (LOX IMVI) was 75.2 µM (inactive). The GI50 (NCI-H226) was 88.5 µM (inactive), the GI50 (MCF7) was 67.6 µM (inactive) and the GI50 (HCT-15) was greater than 100 µM. The GI50 (DU-145) was > 100 µM (inactive), the GI50 (CAKI-1) was > 100 µM (inactive) and the GI50 (SF-295) was > 100 µM (inactive). The GI50 (SW-620) was > 100 µM (inactive), the GI50 (SN12C) was > 100 µM (inactive) and the GI50 (SK-MEL-5) was 49.2 µM (inactive). For the same molecule, the GI50 (SR) was 39.6 µM (inactive), the GI50 (UO-31) was 65.2 µM (inactive) and the GI50 (K562) was 39.8 µM (inactive). For the same molecule, the GI50 (HOP-62) was > 100 µM (inactive), the GI50 (NCI/ADR-RES) was > 100 µM (inactive) and the GI50 (SK-MEL-28) was 89.7 µM (inactive). The GI50 (HT-29) was 48.5 µM (inactive), the GI50 (NCI-H522) was 37.5 µM (inactive) and the GI50 (KM12) was 20.4 µM (inactive). The GI50 (U-251) was 95.5 µM (inactive), the GI50 (MOLT-4) was 26.3 µM (inactive) and the GI50 (SF-268) was 49.2 µM (inactive). The GI50 (BT-549) was > 100 µM (inactive) and the GI50 (T47D) was 48.3 µM (inactive).

For `Cc1cc(C)nc(SCC(=O)OC2CC(C)CCC2C(C)C)n1` (configuration not stated), the GI50 (HL-60) was 19.1 µM (inactive), the GI50 (OVCAR-3) was 14.3 µM (inactive) and the GI50 (COLO 205) was 16.7 µM (inactive). For the same molecule, the GI50 (A549) was 22.6 µM (inactive), the GI50 (OVCAR-4) was 20.9 µM (inactive) and the GI50 (SNB-75) was 21 µM (inactive). The GI50 (786-0) was 21.6 µM (inactive), the GI50 (UACC-62) was 14.6 µM (inactive) and the GI50 (MDA-MB-435) was 23.6 µM (inactive). The GI50 (SK-OV-3) was 23.9 µM (inactive), the GI50 (M14) was 16.7 µM (inactive) and the GI50 (SK-MEL-2) was 21.8 µM (inactive). For the same molecule, the GI50 (Hs-578T) was 33.4 µM (inactive), the GI50 (PC-3) was 28.3 µM (inactive) and the GI50 (NCI-H23) was 24.8 µM (inactive). For the same molecule, the GI50 (UACC-257) was 19.6 µM (inactive), the GI50 (RPMI-8226) was 19.3 µM (inactive) and the GI50 (MDA-MB-231) was 17.9 µM (inactive). The GI50 (A498) was 18.1 µM (inactive), the GI50 (RXF 393) was 16.8 µM (inactive) and the GI50 (SNB-19) was 18.7 µM (inactive). The GI50 (Malme-3M) was 21.6 µM (inactive), the GI50 (TK-10) was 34.3 µM (inactive) and the GI50 (OVCAR-5) was 22.3 µM (inactive). For the same molecule, the GI50 (HCT-116) was 19.2 µM (inactive), the GI50 (IGROV-1) was 20.6 µM (inactive) and the GI50 (ACHN) was 18.7 µM (inactive). For the same molecule, the GI50 (EKVX) was 17.9 µM (inactive), the GI50 (NCI-H460) was 18.8 µM (inactive) and the GI50 (CCRF-CEM) was 16.6 µM (inactive). For the same molecule, the GI50 (OVCAR-8) was 38.3 µM (inactive), the GI50 (LOX IMVI) was 20 µM (inactive) and the GI50 (MCF7) was 23.3 µM (inactive). For the same molecule, the GI50 (HCT-15) was 15.6 µM, the GI50 (DU-145) was 34.3 µM (inactive) and the GI50 (CAKI-1) was 20.3 µM (inactive). The GI50 (SF-295) was 14.6 µM (inactive), the GI50 (SW-620) was 19.9 µM (inactive) and the GI50 (SN12C) was 19.1 µM (inactive). For the same molecule, the GI50 (SK-MEL-5) was 15.2 µM (inactive), the GI50 (HOP-92) was 26 µM (inactive) and the GI50 (UO-31) was 18.7 µM (inactive). The GI50 (K562) was 20 µM (inactive), the GI50 (HOP-62) was 11.6 µM (inactive) and the GI50 (NCI/ADR-RES) was 17 µM (inactive). For the same molecule, the GI50 (SK-MEL-28) was 26 µM (inactive), the GI50 (HT-29) was 16.4 µM (inactive) and the GI50 (NCI-H522) was 18.8 µM (inactive). The GI50 (KM12) was 20.1 µM (inactive), the GI50 (U-251) was 22.5 µM (inactive) and the GI50 (MOLT-4) was 16.7 µM (inactive). For the same molecule, the GI50 (SF-268) was 37 µM (inactive), the GI50 (BT-549) was 45.9 µM (inactive) and the GI50 (T47D) was 14.8 µM (inactive).
